Assay results: US20240391871A1, “SUBSTITUTED HYDROXYMETHYL PYRROLIDINES AND MEDICAL USES THEREOF” (ATROGI AB, priority 2021, published 2024)
Counter-ions that a name gives are not always drawn.

Key:
[1] = system: L6-myotubes; experiment: Glucose uptake (3H-2-deoxyglucose) in differentiated L6-myotubes; assay type: cell-based; settings: compound 1×10^−5 M; for Emax at 10 µM: read-out: Biological example 1: glucose uptake, activity compared to that of isoproterenol
Description: (§1) L6-myoblasts were grown in Dulbecco's Modified Eagle's Medium (DMEM) containing 1 g/L glucose supplemented with 10% fetal bovine serum, 2 mM L-Glutamine, 50 U/mL penicillin, 50 μg/mL streptomycin and 10 mM HEPES. Cells were plated at 1×10^5 cells per mL in 24-well plates. After reaching 90% confluence the cells were grown in medium containing 2% FBS for 7 days where upon cells differentiated into myotubes.
Differentiated L6-myotubes were serum-starved overnight in medium containing 0.5% fatty-acid free BSA and stimulated with an agonist, with a final concentration of 1×10^−5 M. After 1 h 40 min the cells were washed with warm glucose free medium or PBS twice and another portion of agonist was added to the glucose free medium. After 20 min the cells were exposed to 50 nM ^3H-2-deoxyglucose for 10 min before washed with ice cold glucose free medium or PBS three times and lysed with 0.2 M NaOH, 400 μL/well, for 1 h at 60° C. The cell lysate was mixed with 4 mL scintillation buffer (Emulsifier Safe, Perkin Elmer) and the radioactivity was detected in a β-counter (Tri-Carb 4810TR, Perkin Elmer). The activity for each compound is compared to that of isoproterenol.

[2] = system: Intracellular cAMP levels; experiment: Measurement of intracellular cAMP levels in differentiated L6 cells; assay type: cell-based; settings: Rattus norvegicus, L6, 0.25 h, compound 1×10^−5 M, 15 min, read-out: Biological example 2: intracellular cAMP levels, activity compared to that of isoproterenol
Description: as §1
Differentiated cells were serum-starved overnight and stimulated with an agonist, final concentration 1×10^−5 M, for 15 min in stimulation buffer (HBSS supplemented with 1% BSA, 5 mM HEPES and 1 mM IBMX, pH 7.4). The medium was aspirated and 100 μL of 95% EtOH was added to each well of the 24-well plate and cells were kept at −20° C. overnight. The EtOH was allowed to evaporate and 500 μL of lysis buffer (1% BSA, 5 mM HEPES and 0.3% Tween-20, pH 7.4) was added to each well. The plate was kept at −80° C. for 30 min and then at −20° C. until the day of detection when the samples were thawed. Intracellular cAMP levels were detected using an alpha screen cAMP kit (6760635D from Perkin Elmer). The activity for each compound is compared to that of isoproterenol.

Structure (SMILES) | Emax at 10 µM [1] | Emax at 10 µM [2] | Biological example 1: glucose uptake, activity compared to that of isoproterenol ([1]; hydrochloride)
O[C@H](c1cccc(F)c1)[C@H]1CC[C@@H](Cc2ccc(Cl)cc2)N1 [Example 25, (R)-((2R,5S)-5-(4-Chlorobenzyl)pyrrolidin-2-yl)(3-fluorophenyl)methanol hydrochloride] | > 75% | < 25% | –
O[C@@H](c1cncc(F)c1)[C@H]1CC[C@@H](Cc2ccc(Cl)cc2)N1 [Example 30, (S)-(2R,5S)-5-(4-Chlorobenzyl)pyrrolidin-2-yl)(5-fluoropyridin-3-yl) -methanol dihydrochloride] | 50 to 75% | < 25% | –
O[C@H](c1cncc(F)c1)[C@H]1CC[C@@H](Cc2ccc(Cl)cc2)N1 [Example 29, (R)-((2R,5S)-5-(4-Chlorobenzyl)pyrrolidin-2-yl)(5-fluoropyridin-3-yl) -methanol dihydrochloride] | > 75% | < 25% | –
CC(=O)N(Cc1ccccc1)[C@H]1CC[C@H](C[C@@H]2CC[C@H]([C@H](O)c3cccc(F)c3)N2)CC1 [Example 41, N-Benzyl-N-((1S,4r)-4-(((2S,5R)-5-((R)-(3-fluorophenyl)(hydroxy) -methyl)pyrrolidin-2-yl)methyl)cyclohexyl)acetamide hydrochloride] | 25 to 50% | < 25% | –
CO[C@H]1CC[C@H](C[C@H]2CC[C@H]([C@H](O)c3cncc(F)c3)N2)CC1 [Example 11, (R)-(5-Fluoropyridin-3-yl)((2R,5R)-5-(((1r,4S)-4-methoxycyclohexyl) -methyl)pyrrolidin-2-yl)methanol dihydrochloride] | > 75% | < 25% | –
CS(=O)(=O)N(Cc1ccccc1)[C@H]1CC[C@@H](C[C@@H]2CC[C@H]([C@@H](O)c3cccc(F)c3)N2)CC1 [Example 39, N-Benzyl-N-((1R,4s)-4-(((2S,5R)-5-((S)-(3-fluorophenyl)(hydroxy) -methyl)pyrrolidin-2-yl)methyl)cyclohexyl)methanesulfonamide hydrochloride] | 50 to 75% | < 25% | –
CO[C@H]1CC[C@H](C[C@@H]2CC[C@H]([C@@H](O)c3cncc(F)c3)N2)CC1 [Example 10, (S)-(5-Fluoropyridin-3-yl)((2R,5S)-5-(((1r,4S)-4-methoxycyclohexyl) -methyl)pyrrolidin-2-yl)methanol dihydrochloride] | 25 to 50% | < 25% | –
CC(=O)N(Cc1ccccc1)[C@H]1CC[C@H](C[C@@H]2CC[C@H]([C@@H](O)c3cccc(F)c3)N2)CC1 [Example 43, N-Benzyl-N-((1S,4r)-4-(((2S,5R)-5-((S)-(3-fluorophenyl)(hydroxy)methyl) -pyrrolidin-2-yl)methyl)cyclohexyl)acetamide hydrochloride] | 50 to 75% | < 25% | –
O[C@@H](c1cccc(F)c1)[C@H]1CC[C@H](Cc2ccc(Cl)cc2)N1 [Example 28, (S)-((2R,5R)-5-(4-Chlorobenzyl)pyrrolidin-2-yl)(3-fluorophenyl)methanol hydrochloride] | 50 to 75% | < 25% | –
COc1ccc(C[C@@H]2CC[C@H]([C@H](O)c3cncc(F)c3)N2)cc1 [Example 21, (R)-(5-Fluoropyridin-3-yl)((2R,5S)-5-(4-methoxybenzyl)pyrrolidin-2-yl) -methanol dihydrochloride] | > 75% | < 25% | –
CS(=O)(=O)N(Cc1ccccc1)[C@H]1CC[C@@H](C[C@@H]2CC[C@H]([C@H](O)c3cccc(F)c3)N2)CC1 [Example 37, N-Benzyl-N-((1R,4s)-4-(((2S,5R)-5-((R)-(3-fluorophenyl)(hydroxy)methyl) -pyrrolidin-2-yl)methyl)cyclohexyl)methanesulfonamide hydrochloride] | 50 to 75% | < 25% | –
CO[C@H]1CC[C@H](C[C@@]2(C)CC[C@H]([C@@H](O)c3cccc(F)c3)N2)CC1 [Example 18, (S)-(3-Fluorophenyl)(2R,5R)-5-(((1r,4R)-4-methoxycyclohexyl)methyl)-5-methylpyrrolidin-2-yl)methanol hydrochloride] | 50 to 75% | < 25% | –
CS(=O)(=O)N[C@H]1CC[C@@H](C[C@@H]2CC[C@H]([C@@H](O)c3cccc(F)c3)N2)CC1 [Example 40, N-((1R,4s)-4-(((2S,5R)-5-((S)-(3-fluorophenyl)(hydroxy)methyl)pyrrolidin-2-yl)methyl)cyclohexyl)methanesulfonamide hydrochloride] | 50 to 75% | < 25% | –
COc1ccc(C[C@@H]2CC[C@H]([C@H](O)c3cccc(F)c3)N2)cc1 [Example 13, (R)-(3-Fluorophenyl)((2R,5S)-5-(4-methoxybenzyl)pyrrolidin-2-yl)methanol] | > 75% | < 25% | –
CO[C@H]1CC[C@H](C[C@@H]2CC[C@H]([C@H](O)c3ccccc3F)N2)CC1.Cl [Example 5, (R)-(2-Fluorophenyl)((2R,5S)-5-(((1r,4S)-4-methoxycyclohexyl)methyl-(pyrrolidin-2-yl)methanol hydrochloride] | > 75% | < 25% | –
CS(=O)(=O)N(Cc1ccccc1)[C@H]1CC[C@H](C[C@@H]2CC[C@H]([C@@H](O)c3cccc(F)c3)N2)CC1 [Example 47, N-Benzyl-N-((1S,4r)-4-(((2S,5R)-5-((S)-(3-fluorophenyl)(hydroxy) -methyl)pyrrolidin-2-yl)methyl)cyclohexyl)methanesulfonamide hydrochloride] | < 25% | < 25% | –
COc1ccc(C[C@@]2(C)CC[C@H]([C@H](O)c3cccc(F)c3)N2)cc1 [Example 19, (R)-(3-Fluorophenyl)((2R,5R)-5-(4-methoxybenzyl)-5-methylpyrrolidin-2-yl)methanol hydrochloride] | > 75% | 25 to 50% | –
CO[C@H]1CC[C@H](C[C@@H]2CC[C@H]([C@@H](O)c3ccccc3F)N2)CC1 [Example 6, (S)-(2-Fluorophenyl)((2R,5S)-5-(((1r,4S)-4-methoxycyclohexyl)methyl) -pyrrolidin-2-yl)methanol hydrochloride] | 25 to 50% | < 25% | –
CS(=O)(=O)N[C@H]1CC[C@H](C[C@@H]2CC[C@H]([C@@H](O)c3cccc(F)c3)N2)CC1 [Example 48, N-((1S,4r)-4-(((2S,5R)-5-((S)-(3-Fluorophenyl)(hydroxy)methyl)pyrrolidin-2-yl)methyl)cyclohexyl)methanesulfonamide hydrochloride] | 50 to 75% | < 25% | –
O[C@H](c1cncc(F)c1)[C@H]1CC[C@H](Cc2ccc(Cl)cc2)N1 [Example 31, (R)-((2R,5R)-5-(4-Chlorobenzyl)pyrrolidin-2-yl)(5-fluoropyridin-3-yl) -methanol dihydrochloride] | > 75% | < 25% | –
CO[C@H]1CC[C@H](C[C@@]2(C)CC[C@H]([C@H](O)c3cccc(F)c3)N2)CC1 [Example 17, (R)-(3-Fluorophenyl)((2R,5R)-5-(((1r,4R)-4-methoxycyclohexyl)methyl)-5-methylpyrrolidin-2-yl)methanol] | > 75% | 25 to 50% | –
CO[C@H]1CC[C@H](C[C@H]2CC[C@H]([C@@H](O)c3cncc(F)c3)N2)CC1 [Example 12, (S)-(5-Fluoropyridin-3-yl)(2R,5R)-5-(((1r,4S)-4-methoxycyclohexyl) -methyl)pyrrolidin-2-yl)methanol dihydrochloride] | 25 to 50% | < 25% | –
COc1ccc(C[C@H]2CC[C@H]([C@@H](O)c3cccc(F)c3)N2)cc1 [Example 16, (S)-(3-Fluorophenyl)((2R,5R)-5-(4-methoxybenzyl)pyrrolidin-2-yl)methanol] | 50 to 75% | < 25% | –
O[C@@H](c1cccc(F)c1)[C@H]1CC[C@@H](Cc2ccc(Cl)cc2)N1 [Example 26, (S)-((2R,5S)-5-(4-Chlorobenzyl)pyrrolidin-2-yl)(3-fluorophenyl)methanol hydrochloride] | 50 to 75% | < 25% | –
CC(=O)N[C@H]1CC[C@H](C[C@@H]2CC[C@H]([C@H](O)c3cccc(F)c3)N2)CC1.Cl [Example 34, N-((1S,4r)-4-(((2S,5R)-5-((R)-(3-Fluorophenyl)(hydroxy)methyl)pyrrolidin-2-yl)methyl)cyclohexyl)acetamide hydrochloride] | – | < 25% | +++ (more than 75% of that of isoproterenol)
